Results reported in patent US8258182B2, “Substituted 1,3-diphenylpropane derivatives, preparations and uses thereof” (Genfit, priority 2006, dated 2012).

Tests used:
[1] = test system: PPARs target genes (PDK4, ApoCIII, ACO) in the hepatic tissue; assay: Hepatic expression of PPAR target genes in E2/E2 mice (quantitative RT-PCR); assay type: in vivo, mouse; conditions: 3 and 10 mpk
Experimental: The effectiveness of the compounds according to the invention is also evaluated by measuring, in the hepatic tissue, the expression of genes involved in lipid and/or glucids metabolism and in energy dissipation. Each level of genes expression is normalised regarding the expression level of the reference gene 36B4's. The induction factor, i.e. the ratio between the relative signal (induced by the compound according to the invention) and the average of the relative values relating to the control group is then calculated. The higher the induction factor is, the more the compound promotes hepatic gene expression. The final result is expressed as an average of the induction values obtained with each experimental group.
The PPARα agonist properties previously measured in vitro should, in the liver, lead to an overexpression of the target genes directly under the control of the PPARα: the genes we have studied in this experiment are PDK-4 (an enzyme involved in glucid metabolism), Apo CIII (an apolipoprotein involved in lipid metabolism), and Acox1 (in mice, Acox1 corresponds to the ACO gene in humans (Acyl Co-enzymeA Oxydase, an enzyme key to the fatty acid β-oxidation mechanism)). Measuring the transcriptional activity of PPARα target genes after a treatment with compounds according to the invention does therefore allow to evaluate the hypolipidemic properties of the compounds according to the invention.
The ApoE2/E2 transgenic mice were kept on a 12 hour/12 hour light/dark cycle at a constant temperature of 20±3° C. After a one week acclimatization period, the mice were weighed and divided into groups of 6 animals selected so as to render uniform the distribution of their body weights and plasma lipid rates, determined before the experiment. The tested compounds were suspended in carboxymethylcellulose (Sigma C4888) and administered by intra-gastric tube feeding once a day for 8 days (for compound 1) or 14 days (for compound 8) with the chosen doses. The animals had free access to food and water (standard diet). Taking of food and weight gain are recorded throughout the experiment. At the end of the experiment, the animals were anesthetized after a 4 hour fast, and a blood sample was taken using (EDTA) anticoagulant, then the mice were weighed and euthanized. The plasma was separated by centrifugation at 3000 rotations/minute for 20 minutes. The samples were kept at +4° C.
Liver samples were removed, frozen in liquid nitrogen, and kept at −80° C. for later analyses.
Total RNA is extracted from liver fragments by using the NucleoSpin® 96 RNA kit (Macherey Nagel, Hoerdt, France) according to the manufacturer's instructions.
1 μg of total RNA (quantified by using the Ribogreen RNA quantification kit (Molecular Probes)) is then reverse-transcripted into complementary DNA by means of a 1 hour reaction at 37° C. in a total volume of 20 μl containing a 1× buffer (Sigma), 1.5 mM of DTT, 0.18 mM of dNTPs (Promega), 200 ng of pdN6 (Amersham), 30U of RNase inhibitor (Sigma), and 1 μl of MMLV-RT (Sigma).
The PCR quantitative experiments were carried out using the MyiQ Single-Color Real-Time PCR Detection System (Biorad, Marnes-la-Coquette, France) and were performed using the iQ SYBR Green Supermix kit according to the manufacturer's recommendations, in 96-well trays in 5 μl of a diluted reverse transcription solution at a hybridation temperature of 55° C. The specific primer pairs of the genes studied were used: • PDK4: sense primer: 5′-[…]-3′ (SEQ ID NO: 1) and antisense primer 5′-[…]-3′ (SEQ ID NO: 2)) • ApoCIII: sense primer: 5′-[…]-3′ (SEQ ID NO: 3) and antisense primer 5′-[…]-3′ (SEQ ID NO: 4). • ACO: sense primer: 5′-[…]-3′ (SEQ ID NO: 5) and antisense primer: 5′-[…]-3′ (SEQ ID NO: 6)
The quantity of fluorescencet emitted is directly proportional to the quantity of cDNA present at the beginning of the reaction and amplified during the PCR. […]

[2] = test system: MCP1 secretion by THP1 monocytes; assay: Secretion of MCP1 by THP1 monocytes stimulated with PMA (ELISA); assay type: cell-based, human; conditions: 1 μM, 24 hours, PMA 5 ng/ml, vs DMSO alone (FIG. 4-1)
Experimental: (§1) The anti-inflammatory effects of the compounds according to the invention were evaluated by measuring the secretion of MCP1 (Monocyte chemotactic protein-1) by THP1 monocytes treated for 24 hours with the compounds according to the invention and stimulated simultaneously with PMA (Phorbol 12-myristate 13-acetate, which promotes an inflammatory response in cells and their differentiation into macrophages).
as §1, with “of the compound according to” for “of the compounds according to”, “into macrophages). […]” for “into macrophages).”
The treatment medium is recovered and the MCP1 concentration is measured using the ELISA kit<<Human MCP-1 ELISA Set>>(BD OptEIA; 555179) in accordance with the manufacturer's recommendation.
MCP1 is laid on a plate and is recognized by a anti-MCP1 specific antibody. […] The coloration resulting from the enzymating activity is proportional to the quantity of fixed MCP1 and can be measured by a spectrophotometry method. A range is performed from a point representative of a known concentration and from which the MCP1 concentration of each sample is calculated. […]

`CCCOc1ccc(C(=O)CCc2cc(C)c(OC(C)(C)C(=O)O)c(C)c2)cc1` [Compound 8, 2-[2,6-dimethyl-4-[3-[4-(propyloxy)phenyl]-3-oxo-propyl]phenoxyl]-2-methylpropanoic acid] was tested, and the “hepatic expression of the genes coding for PDK4” value ([1]; 14 days (FIG. 2-7)) was “significant augmentation”, the “hepatic expression of the genes coding for ApoCIII” value ([1]; 14 days (FIG. 2-8)) was “reduction” and the “hepatic expression of the genes coding for ACO” value ([1]; 14 days (FIG. 2-9)) was “significant augmentation”. For the same compound, the “MCP1 secreted by monocytes” value [2] was “significant reduction”.
